This is an account of results in PMC11878239, “Biochemical investigations using mass spectrometry to monitor JMJD6-catalysed hydroxylation of multi-lysine containing bromodomain-derived substrates” (RSC Chemical Biology, 2025).

“And” between values parts separate entries of the source, which are not always exact repeats. Equal values may be shown once. Read-outs that look alike come from different tables or passages of the source.

One experiment has as its system JMJD5. On the set-up: method as in PMID 37292060. The settings on record: SPE-MS, cited from earlier work.
For experiment [1], the system named is PHD2. On the set-up: method as in PMID 18952043. As to conditions: PHD2 (1.0 nM), FRET assay, 2OG or Fe(II), cited from earlier work.
Another experiment deals with NO66_183–641. Set-up: method as in PMID 34843649. As to conditions: NO66_183–641 (0.3 μM), RPL8_205–224 as substrate; SPE-MS; 2OG or Fe(II); cited from earlier work.
The next experiment relates to AspH315–758. On the set-up: method as in PMID 32107312. As to conditions: AspH315–758 (0.1 μM), hFX-CP101–119 as substrate; SPE-MS; 2OG or Fe(II); cited from earlier work.
Experiment [2] deals with T1, full-length His6-JMJD6 (Homo sapiens, UniProt Q6NYC1).
T1 construct: An enzyme mixture (10 μL) containing full-length His6-JMJD6 (5 μM; final concentration: 0.05 μM); made in house; host or cells: Escherichia coli BL21 (DE3), pET-28a(+) plasmid
Kind of experiment: SPE-MS kinetics of JMJD6-catalysed lysyl hydroxylation (2OG, Fe(II), LAA, BRD-derived peptides). The experiment is classed as biochemical. The settings on record: 2OG or Fe(II) varied, BRD4_511–550 (2 μM) as substrate, 0.05 μM full-length His6-JMJD6, ambient temperature. The method, then:
(§1) Recombinant human JMJD6 (full length with a N-terminal His6-tag) was produced in Escherichia coli BL21 (DE3) cells using a pET-28a(+) plasmid and purified by standard Ni(II)-affinity size-exclusion chromatography, as previously reported.[40] […] Purified JMJD6 was stored at −78 °C; fresh aliquots were used for all JMJD6 assays.
Peptides were used as 10 mM stock solutions in DMSO (Sigma-Aldrich; BioUltra grade).
Assay samples were aspirated under vacuum for 0.4 s, then loaded onto a C4 solid phase extraction (SPE) cartridge. After loading, the C4 SPE cartridge was washed with 0.1%v/v aqueous formic acid to remove non-volatile buffer salts (5 s, 1.5 mL min^−1). The peptide was eluted from the SPE cartridge with 0.1%v/v aqueous formic acid in 75/25v/v acetonitrile/water into the mass spectrometer (5 s, 1.6 mL min^−1) and the SPE cartridge re-equilibrated with 0.1%v/v aqueous formic acid (1 s, 1.25 mL min^−1).
Peaks corresponding to the m/z +5 charge states of the BRD-derived substrate peptide and the hydroxylated product peptides were extracted from the ion chromatogram and integrated using RapidFire Integrator 4.3.0 (Agilent). Peak area data were exported into Microsoft Excel and used to calculate the relative abundance of the mono-hydroxylated product peptide using the following equation: […]
The concentration of the mono-hydroxylated product peptide was calculated by multiplying the %-fraction of the mono-hydroxylated product peptide by the initial concentration of the substrate peptide employed in the assay. Initial reaction velocities were then calculated and fitted to a Michaelis–Menten plot using nonlinear regression (GraphPad Prism 5).

The subject of experiment [3] is AspH. The settings on record: AspH (0.1 μM), hFX-CP101–119 as substrate, cited from earlier work.
Experiment [4] deals with T1, full-length His6-JMJD6. Nature of the experiment: SPE-MS kinetics of JMJD6 for O2. The settings on record: for apparent Michaelis constant K^app m for O2: SPE-MS. The experiment is classed as biochemical. The method, then:
as §1
Assays to determine the kinetic parameters of JMJD6 for O2 were performed in 2 mL gas-tight glass vials (Sigma-Aldrich) in independent triplicates. 50 mM Tris buffer (pH 7.5; 0.95 mL) was incubated in a 2 mL gas-tight glass vial at 37 °C for 30 min with a fixed O2 concentration (in N2; specified in Fig S9, ESI ^†), adjusted using a mass flow controller. […] The JMJD6-catalysed reaction was performed at 37 °C at a fixed O2 concentration and was stopped after the reaction time specified (Fig. S9, ESI ^†) by the addition of 20%v/v aqueous formic acid (100 μL) and analysed by SPE-MS. The %-concentration of O2 in N2, adjusted with a mass flow controller, was converted into an O2 concentration [μM] by calibration using a standard (i.e., y[μM] = 9.026·x[%]).[100] Data were analysed by SPE-MS as described above to calculate apparent JMJD6 kinetic parameters for O2.

Experiment [5] concerns PHD2. As to conditions: PHD2 (4 μM), cited from earlier work; for k cat: O2.
Experiment [6] relates to PHD2. The settings on record: PHD2 versus JMJD6.
Experiment [7] relates to KDM4A. As to conditions: KDM4A (1 μM), H3_1–15K9me3 as substrate; cited from earlier work.
For experiment [8], the system named is type I human collagen prolyl 4-hydroxylase (CP4H-I). The settings on record: (Pro-Pro-Gly)10 as substrate, [14C]CO2 release; cited from earlier work.
For experiment [9], the system named is KDM4A. As to conditions: KDM4A versus JMJD6.
The next experiment deals with KDM4E. As to conditions: KDM4E (2.1 μM), H3_1–15K9me3 as substrate, oxygen consumption assay, cited from earlier work.
The test system of experiment [10] is KDM4C. As to conditions: KDM4C (3 μM), H3_1–15K9me3 as substrate, oxygen consumption assay, cited from earlier work.
The test system of another experiment is FIH. As to conditions: FIH (5 μM), HIF-1α789–822 as substrate, cited from earlier work.
In experiment [11] the test system is AspH. As to conditions: AspH versus JMJD6.
For experiment [12], the system named is phytanoyl-CoA dioxygenase (PHYH). The settings on record: PHYH (50 μM), isovaleryl-CoA as substrate, oxygen consumption assay, cited from earlier work.
In a further experiment the test system is BBOX. On the set-up: method as in PMID 25030770, PMID 24317009. As to conditions: BBOX (0.05 μM); 1H NMR turnover assay; cited from earlier work.
Another experiment relates to His6-JMJD6_1–362. As to conditions: MALDI-TOF assay, LUC7L2_267–278 as the substrate; cited from earlier work.
Experiment [13] relates to KDM4C. On the set-up: method as in PMID 21859681. The settings on record: KDM4C (0.5 μM), ARTAQTARK(me3)STGGIA as substrate; SPE-MS; cited from earlier work.
[14] abbreviates: LAA 100 μM, 50 mM Tris pH 7.5, ~20 min, SPE-MS, mean ± SD n = 3.
[15] abbreviates: O2 varied, BRD4_511–550 (2 μM) as substrate, 0.05 μM full-length His6-JMJD6, 50 mM Tris pH 7.5, 37 °C, quenched after 60 or 90 s, mean ± SD n = 3.

Consider “ammonium iron(II) sulfate hexahydrate [Fe(II)]”, for which the “k cat/Km” value is 38500 ± 6200 M⁻¹ s⁻¹ with JMJD5 (RSP6_128–148 as substrate, 2OG or Fe(II)) and 130000 ± 30000 M⁻¹ s⁻¹ in the experiment with AspH315–758. For the same compound, the “K^app m” value was 0.89 ± 0.07 µM in the experiment on PHD2 [1] (HIF-1α-derived biotin-DLEMLAPYIPMDDDFQL as substrate), 0.014 ± 0.001 µM in the experiment with NO66_183–641 and 1.42 ± 0.16 µM in the experiment on AspH315–758. Further, the “k^app cat” value in the experiment with AspH315–758 was 0.19 ± 0.03 s⁻¹. Besides, the “apparent Michaelis constant K^app m” value on full-length His6-JMJD6 [2] (setting [14]) was determined as 0.19 ± 0.02 µM. Also, the “apparent maximum velocity v^app max” value on full-length His6-JMJD6 [2] (setting [14]) was 3.6 ± 0.1 nM/s. The “apparent turnover number k^app cat” value at full-length His6-JMJD6 [2] (pH 7.5, calculated from v^app max assuming active JMJD6 = total enzyme, n = 3) was 0.072 ± 0.002 s⁻¹. Also, the “specificity constant kcat/Km” value on full-length His6-JMJD6 [2] (pH 7.5, n = 3) was found to be 380000 ± 50000 M⁻¹ s⁻¹.
Take `O=O` [O2, dioxygen]: the “K m for O2” value with AspH [3] is 426 ± 73 µM; in the experiment on PHD2 [5] (HIF-1α395–413 as substrate) it was greater than 450 µM; in the experiment on PHD2 [5] (HIF-1α556–574 as substrate), 460 ± 30 µM; in the experiment on KDM4A [7] it was 173 ± 23 µM; in experiment [8] it was roughly 40 µM; in the experiment on KDM4E, 197 ± 16 µM. For the same compound, the “K m for O2” value with KDM4C [10] is 158 ± 13 µM; in the experiment on FIH, 110 ± 30 µM; in [12] it was 93 ± 43 µM. Besides, the k cat was 0.23 ± 0.04 s⁻¹ in the experiment on AspH [3] (O2); 0.028 ± 0.001 s⁻¹ in the experiment on PHD2 [5] (HIF-1α395–413 as substrate); 0.06 ± 0.01 s⁻¹ in the experiment on PHD2 [5] (HIF-1α556–574 as substrate); 0.067 ± 0.001 s⁻¹ with KDM4E (O2); 0.043 ± 0.001 s⁻¹ in the experiment on KDM4C [10] (O2); 0.56 ± 0.04 s⁻¹ in the experiment on FIH (O2). Also, the k cat in experiment [12] (O2) was 0.016 s⁻¹. Also, the “K^app m (O2) of JMJD6: fold greater than CP4H-I” value at full-length His6-JMJD6 [4] (JMJD6/BRD4_511–550 versus CP4H-I (ref 26)) is listed as roughly 2 fold. In addition, the “K^app m (O2) of JMJD6: fold greater than KDM6B” value at full-length His6-JMJD6 [4] (JMJD6/BRD4_511–550 versus KDM6B (ref 96)) is roughly 4 fold. Further, the “apparent Michaelis constant K^app m for O2” value on full-length His6-JMJD6 [4] (setting [15]) was 69.8 ± 11.4 µM and 74 ± 14 µM. On full-length His6-JMJD6 [4] (setting [15]), the “apparent turnover number k^app cat” value turned out to be 0.12 ± 0.01 s⁻¹. In addition, the “specificity constant kcat/Km” value on full-length His6-JMJD6 [4] (O2 varied, BRD4_511–550 (2 μM) as substrate, 0.05 μM full-length His6-JMJD6, pH 7.5, 37 °C, n = 3) turned out to be 1700 ± 400 M⁻¹ s⁻¹. The results for the “K^app m (O2): fold greater than that of JMJD6” value in the experiment on PHD2 [6], in the experiment on KDM4A [9] and in the experiment with AspH [11] were roughly 6 fold, roughly 2 fold and roughly 6 fold, respectively.
For RSP6_128–148: JMJD5 substrate, the “k cat/Km (substrate)” value with JMJD5 was 11500 ± 6300 M⁻¹ s⁻¹.
With `C[N+](C)(C)CCCC(=O)[O-]` [γ-butyrobetaine], in the experiment with BBOX, the “K m (substrate)” value is 4.2 µM and the “k cat (substrate)” value was 0.83 s⁻¹.
As for `O=C(O)CCC(=O)C(=O)O` [2OG, 2-oxoglutarate], on full-length His6-JMJD6 [4] (setting [15]), the “apparent Michaelis constant K^app m for O2” value is 74 ± 14 µM. For the same compound, the “K^app m” value with PHD2 [1] (HIF-1α-derived biotin-[…] as substrate) is 0.35 ± 0.03 µM; in the experiment on NO66_183–641, 0.83 ± 0.09 µM. Besides, the “K^app m for 2OG” value with His6-JMJD6_1–362 is roughly 31 µM. For the same compound, the “k^app cat” value in the experiment with AspH315–758 is 0.19 ± 0.03 s⁻¹; in the experiment on KDM4C [13], 0.075 ± 0.001 s⁻¹. In addition, on full-length His6-JMJD6 [2] (setting [14]), the “apparent Michaelis constant K^app m” value came out at 23.3 ± 2.5 µM.
